Reference: EP2197879B1, “C7-SUBSTITUTED CAMPTOTHECIN ANALOGS” (priority 2007, dated 2009)
Read-outs that look alike come from different tables or passages of the source.

Legend:
A2780/DX5 cells = experiment: Sulforhodamine B (SRB) cytotoxicity assay in A2780/DX5 cells; type: cell-based; settings: for IC50 Ratio: A2780/DX5 versus A2780/WT
Protocol: (§1) Each of the testing conditions used in this study in both A2780/WT (wild-type) and A2780/DX5 cells were repeated in five to fifteen experiments that were performed on separate days. Each experiment consisted of one microtiter plate with at least eight individual assays of a given drug treatment condition on the plate. The sulforhodamine B (SRB) assay was used to assess cytotoxicity and absorbance at 570 nm (A570) in order to calculate the percentage of cell control (or percent cell survival) for the various treatment conditions in the plate wells.
(§2) Roswell Park Memorial Institute (RPMI 1640) medium, fetal bovine serum (FBS), and L-glutamine were purchased from Gibco BRL. Drugs were dissolved in sterile dimethylsulfoxide (DMSO), from American Type Culture Collection (ATCC) for stock solutions (2.5 to 5.0 mM). Subsequent dilutions were made using cell culture medium (prior to adding the drug to cells). SRB was purchased from Sigma and dissolved in 1.0 percent acetic acid. Trichloroacetic acid was purchased from VWR International.
(§3) Cells were manipulated in a Class IIA/B3 Biological Safety Cabinet (Forma Scientific) and maintained at 37°C in a humidified atmosphere containing 5% CO2 in a water-jacketed cell culture incubator (Forma Scientific). Cells were counted using a Coulter-Z1 counter (Beckman-Coulter). Following drug treatment, plates were washed using a Biomek 2000 station (Beckman) and, following exposure to SRB dye, plates were washed using an automated plate washer (Model EL404, Bio-Tek Instruments). Percentage of control was correlated to A570 values and determined using a Model EL800 plate reader (Bio-Tek Instruments).
(§4) Population doubling times for the two cell lines used in this study encompassed a total of five cell doublings corresponding to approximately 5 days for A2780/WT and A2780/DX5 cells. A2780/WT and A2780/DX5 cells were cultured in RPMI 1640 medium supplemented with 10% fetal bovine serum and 1 mM of L-glutamine. Both cell lines were maintained as monolayered cultures in T-25 or T-75 flasks and then seeded to microtiter plate wells for experiments described herein. Prior to SRB assays, cell viability was monitored by evaluation of microtiter plate wells. Dead cells detach and float while living cells remain attached to the bottom of the cell well.
(§5) The sulforhodamine B (SRB) cytotoxicity assay (see, Skehan P, et al., New colorimetric cytotoxicity assay for anticancer-drug screening. J. Natl. Cancer Inst. 82:1107-1112 (1990)) was used to determine the cytotoxic effects of BNP1350, SN-38, topotecan, 9-NH2-CPT, and 9-NO2-CPT on cell growth in vitro. Briefly, after the medium was aspirated from individual plate wells, trichloroacetic acid (100 µL of 10.0% solution) was added to each well, and the plates were incubated at 4°C for at least 1 hour. The plates were washed five-times with water using an automated microplate washer (Model EL 404, Bio-Tek Instruments), SRB solution (100 µL of 0.4 grams SRB dissolved in 100 mL 1.0 percent acetic acid) was added, and plates remained at room temperature for 15 minutes. The plates were then washed five-times using acetic acid (1.0%), air dried, and bound dye was solubilized in Tris base (150 µL, 10 mM). Plates were agitated (gently) for 5 minutes and the absorbance values of the SRB dye-protein adduct at a 570 nm wavelength (A570) were determined using an automated microtiter plate reader equipped with an A570 filter (Model EL800, BioTek Instruments). Table VII. Summary of Cytotoxicity Experiments in A2780/WT and DX5 Cells

[1] = tested on: A2780/WT (wild-type) cells; experiment: Sulforhodamine B (SRB) cytotoxicity assay in A2780/WT cells; type: cell-based
Protocol: as §1, §2, §3, §4, §5

[2] = Homo sapiens, SRB assay, A2780/DX5 cells, read-out: A2780/ DX5 (IC50)
[3] = Homo sapiens, SRB assay, A2780/WT cells, read-out: A2780/ WT (IC50)
[4] = SRB assay, A2780/DX5 cells, read-out: A2780/ DX5 (IC50)
[5] = SRB assay, A2780/WT cells, read-out: A2780/ WT (IC50)
[6] = Homo sapiens, A2780, read-out: A2780/ DX5 (IC50)
[7] = Homo sapiens, A2780, read-out: A2780/ WT (IC50)

Structure (SMILES)	IC50 Ratio (A2780/DX5 cells)	IC50 (A2780/DX5 cells; [2])	IC50 [1, 3]	IC50 (A2780/DX5 cells; [4])	IC50 [1, 5]	IC50 (A2780/DX5 cells; [6])	IC50 [1, 7]
CC[C@@]1(O)C(=O)OCc2c1cc1n(c2=O)Cc2c-1nc1ccccc1c2CC[Si](C)(C)CCCOC(=O)c1ccco1 [Compound 57, Furan-2-carboxylic acid 3-{[2-(4-ethyl-4-hydroxy-3,13-dioxo-3,4, 12, 13-tetrahydro-1H-2-oxa-6,12a-diaza-dibenzo[b,h]fluoren-11-yl)-ethyl]-dimethyl-silanyl}-propyl ester]	2.4	0.0292 µM	0.0123 µM	–	–	–	–
CCC1(O)C(=O)OCc2c1cc1n(c2=O)Cc2c-1nc1ccccc1c2CC[Si](C)(C)CSC(C)=O (stereo not drawn) [Compound 9, thioacetic acid S-({[2-(4-ethyl-4-hydroxy-3.13-dioxo-3,4,12,13-tetrahydro-1H-2-oxa-6,12a-diaza-dibenzo[b,h]fluoren-11-yl)-ethyl]-dimethylsilanyl} -methyl) ester]	1.94	–	–	0.125 µM	0.0647 µM	–	–
CC[C@@]1(O)C(=O)OCc2c1cc1n(c2=O)Cc2c-1nc1ccccc1c2CC[Si](C)(C)CNC(=O)N(C)C [Compound 45, (4S)-3-({[2-(4-ethyl-4-hydroxy-3, 13-dioxo-3,4, 12, 13-tetrahydro-1H-2-oxa-6,12a-diaza-dibenzo[b,h]fluoren-11-yl)-ethyl]-dimethylsilanyl}-methyl)-1,1-dimethyl-urea]	4.9	0.178 µM	0.0361 µM	–	–	–	–
CCC1(O)C(=O)OCc2c1cc1n(c2=O)Cc2c-1nc1ccccc1c2CC[Si](C)(C)CCC(=O)N(C)C (stereo not drawn) [Compound 48, 3-{[2-(4-Ethyl-4-hydroxy-3,13-dioxo-3,4,12,13-tetrahydro-1H-2-oxa-6,12a-diaza-dibenzo[b,h]fluoren-11-yl)-ethyl]-dimethyl-silanyl}-N,N-dimethyl-propionamide]	3.9	0.164 µM	0.0423 µM	–	–	–	–
CC[C@@]1(O)C(=O)OCc2c1cc1n(c2=O)Cc2c-1nc1ccccc1c2CC[Si](C)(C)CCCn1cncn1 [Compound 15, (4S)-11-{2-[dimethyl-(3-[1,2,4]triazol-1-yl-pronyl)-silanyl]-ethyl}-4-ethyl-4-hydroxy-1,12-dihydro-4H-2-oxa-6,12a-diaza-dibenzo[b,h]fluorene-3,13-dione]	6.9	–	–	0.0624 µM	0.009 µM	–	–
CC[C@@]1(O)C(=O)OCc2c1cc1n(c2=O)Cc2c-1nc1ccccc1c2CC[Si](C)(C)CCCn1ccnc1 [Compound 14, (4S)-4-ethyl-4-hydroxy-11-{2-[(3-imidazol-1-yl-propyl)-dimethyl-silanyl]-ethyl}-1,12-dihydro-4H-2-oxa-6,2a-diaza-dibenzo[b,h]fluorene-3,13-dione]	14.8	–	–	0.166 µM	0.0112 µM	–	–
CC[C@@]1(O)C(=O)OCc2c1cc1n(c2=O)Cc2c-1nc1ccccc1c2CC[Si](C)(C)CCCN(C)C [Compound 16, (4S)-11-{2-[(3-dimethylaminopropyl)-dimethysilanyl]-ethyl}-4-ethyl-4-hydroxyl-1,12-dihydro-4H-2-oxa-6,12a-diaza-dibenzo[b,h]fluorene-3,13-dione]	21.7	–	–	0.512 µM	0.0236 µM	–	–
CC[C@@]1(O)C(=O)OCc2c1cc1n(c2=O)Cc2c-1nc1ccccc1c2CC[Si](C)(C)CNC(=O)Nc1ccccc1 [Compound 41, (4S)-1-({[2-(4-ethyl-4-hydroxy-3,13-dioxo-3,4,12,13-tetrahydro-1H-2-oxa-6,12a-diaza-dibenzo[b,h]fluoren-11-yl)-ethyl]-dimethylsilanyl}-methyl)-3-phenylurea]	11.2	–	–	–	–	0.259 µM	0.0232 µM
CC[C@@]1(O)C(=O)OCc2c1cc1n(c2=O)Cc2c-1nc1ccccc1c2CC[Si](C)(C)CCCNC(=O)C(F)(F)F [Compound 23, (4S)-N-(3-{[2-(4-ethyl-4-hydroxy-3,13-dioxo-3,4,12,13-tetrahydro-1H-2-oxa-6,12a-diaza-dibenzo[b,h]fluoren-11-yl)-ethyl]-dimethyl-silanyl}-propyl)-2,2,2-trifiuoro-acetamide]	3.3	–	–	0.0558 µM	0.0169 µM	–	–
CCC1(O)C(=O)OCc2c1cc1n(c2=O)Cc2c-1nc1ccccc1c2CC[Si](C)(C)CCCOC(=O)C1CCC1 (stereo not drawn) [Compound 62, Cyclobutanecarboxylic acid 3-{[2-(4-ethyl-4-hydroxy-3, 13-dioxo-3,4, 12, 13-tetrahvdro-1H-2-oxa-6,12a-diaza-dibenzo[b,h]fluoren-11-yl)-ethyl]-dimethyl-silanyl}-propyl ester]	3.77	–	–	0.0392 µM	0.0104 µM	–	–
CCC1(O)C(=O)OCc2c1cc1n(c2=O)Cc2c-1nc1ccccc1c2CC[Si](C)(C)CCC(=O)O (stereo not drawn) [Compound 47, 3-{[2-(4-Ethyl-4-hydroxy-3,13-dioxo-3 ,4, 12, 13-tetrahydro-1H-2-oxa-6, 12a-diaza-dibenzo[b,h]fluoren-11-yl)-ethyl]-dimethyl-silanyl}-propionic acid]	3.1	0.629 µM	0.2 µM	–	–	–	–
CC[C@@]1(O)C(=O)OCc2c1cc1n(c2=O)Cc2c-1nc1ccccc1c2CC[Si](C)(C)CI [Compound 4, 11-(4S)-[2-(iodomethyldimethylsilanyl)-ethyl]-4-ethyl-4-hydroxy-1,12-dihydro-4H-2-oxa-6,12a-diaza-dibenzo[b,h]fluorene-3,13-dione]	1.72	–	–	–	–	0.027 µM	0.0157 µM
CCN(CC)C(=O)NCCC[Si](C)(C)CCc1c2c(nc3ccccc13)-c1cc3c(c(=O)n1C2)COC(=O)[C@]3(O)CC [Compound 27, (4S)-1,1-diethyl-3-(3-{[2-(4-ethyl-4-hydroxy-3,13-dioxo-3,4,12,13-tetrahydro-1H-2-oxa-6,12a-diaza-dibenzo[b,h]fluoren-11-yl)-ethyl]-dimethyl-silanyl}-propyl)-urea]	7.21	–	–	–	–	0.47 µM	0.0652 µM
CC[C@@]1(O)C(=O)OCc2c1cc1n(c2=O)Cc2c-1nc1ccccc1c2CC[Si](C)(C)CSC1=NCCS1 [Compound 34, (4S)-11-{2-[(4,5-dihydro-thiazol-2-ylsulfanylmethyl)-dimethylsilanyl]-ethyl}-4-ethyl-4-hydroxy-1,12-dihydro-4H-2-oxa-6,12a-diaza-dibenzo[b,h]fluorene-3,13-dione]	2.7	0.0555 µM	–	–	–	–	0.0203 µM
CC[C@@]1(O)C(=O)OCc2c1cc1n(c2=O)Cc2c-1nc1ccccc1c2CC[Si](C)(C)CO [Compound 7, (4S)-4-ethyl-4-hydroxy-11-[2-(hydroxymethyldimethylsilanyl)-ethyl]-1,12-dihydro-4H-2-oxa-6,12a-diaza-dibenzo[b,h]fluorene-3,13-dione]	4.2	–	–	–	–	0.0403 µM	0.0096 µM
CC[C@@]1(O)C(=O)OCc2c1cc1n(c2=O)Cc2c-1nc1ccccc1c2CC[Si](C)(C)CSc1nccn1C [Compound 33, (4S)-11-{2-[dimethyl-(1-methyl-1H-imidazol-2-ylsulfanylmethyl)-silanyl]-ethyl}-4-ethyl-4-hydroxy-1,12-dihydro-4H-2-oxa-6,12a-diaza-dibenzo[b,h]fluorene-3,13-dione]	6.0	–	–	–	–	0.0578 µM	0.0097 µM
